Data reported in patent US10947574B2, “Method for producing fermented carotenoid using carotenoid-producing bacteria obtained by using cobalt-containing culturing medium” (ENEOS CORPORATION, priority 2015, dated 2021).

Tested on: Paracoccus carotinifaciens strain E-396 (FERM BP-4283)
Assay: Example 3: cobalt concentration series, growth (OD610) and carotenoid levels (HPLC)
Format: cell-based
Method: In the following examples, carotenoids were quantified by high performance liquid chromatography (HPLC) as follows.
Two columns of Inertsil SIL-100A, 5 μm (ϕ4.6 mm×250 mm) (GL Sciences Inc., Japan) were connected together for use as a column. For elution, a mixed solution of n-hexane, tetrahydrofuran and methanol (40:20:1) serving as a mobile phase was passed through the column at a flow rate of 1.0 mL per minute at a constant temperature around room temperature. For measurement, samples were each dissolved in tetrahydrofuran and diluted 100-fold with the mobile phase, and 20 μL aliquots of the resulting dilutions were injected into the column. The column eluates were detected at a wavelength of 470 nm. As a standard for quantification, astaxanthin (SIGMA, Cat. No. A9335) was used. The astaxanthin concentration of the standard solution was determined using the following equation after measuring the absorbance (A) of the standard solution at 477 nm and the area percentage % (B) of the astaxanthin peak in HPLC analysis under the above conditions.
Subsequently, a medium of the following composition (glucose 30 g/L, filtered corn steep liquor 30 g/L, ammonium sulfate 1.5 g/L, potassium dihydrogen phosphate 1.5 g/L, disodium hydrogen phosphate dodecahydrate 3.8 g/L, calcium chloride dihydrate 5.0 g/L, magnesium sulfate heptahydrate 0.7 g/L, iron sulfate heptahydrate 1.0 g/L, silicon-based defoaming agent 0.2 g/L) was dispensed in 7.2 ml volumes into cotton-plugged test tubes having an inner diameter of 18 mm to prepare 12 test tubes containing a test tube medium for production. The ingredients used to prepare the test tube medium for production were obtained from lots where microbial cells had been confirmed not to grow well.
The resulting culture solution was then inoculated in 0.05 ml volumes into the 12 types of test tube media for production having different cobalt concentrations, and cultured under shaking at 28° C. for 4 days at 300 spm.
The cobalt concentration in the cobalt chloride-free medium and the concentration of cobalt chloride added to each medium were summed up to calculate the concentration of cobalt present in each medium (Table 6).
After being cultured for 4 days, the culture solutions were each measured for microbial cell growth by OD610 and measure for carotenoid levels by HPLC. […] Moreover, FIGS. 2 to 4 show graphs plotted in enlarged scale for the high and low concentration ranges of cobalt present in the medium.

[1] = cobalt added 0.00042 μmol/L, present 0.0024 μmol/L
[2] = cobalt added 0.0042 μmol/L, present 0.0062 μmol/L
[3] = cobalt added 0.0084 μmol/L, present 0.0104 μmol/L
[4] = cobalt added 0.021 μmol/L, present 0.023 μmol/L
[5] = cobalt added 0.042 μmol/L, present 0.044 μmol/L
[6] = cobalt added 0.42 μmol/L, present 0.42 μmol/L
[7] = cobalt added 1.1 μmol/L, present 1.05 μmol/L
[8] = cobalt added 4.2 μmol/L, present 4.2 μmol/L
[9] = cobalt added 8.4 μmol/L, present 8.4 μmol/L
[10] = cobalt added 21 μmol/L, present 21 μmol/L
[11] = cobalt added 42 μmol/L, present 42 μmol/L

O.O.O.O.O.O.[Cl-].[Cl-].[Co+2] [Cobalt chloride hexahydrate]
Carotenoid: 3-Hydroxyechinenone [1]: 0.1 mg/L
Carotenoid: Adonirubin [1]: 0.0 mg/L
Carotenoid: Adonixanthin [1]: 3.0 mg/L
Carotenoid: Astaxanthin [1]: 0.8 mg/L
Carotenoid: Asteroidenone [1]: 0.1 mg/L
Carotenoid: Canthaxanthin [1]: 0.0 mg/L
Carotenoid: Echinenone [1]: 0.0 mg/L
Carotenoid: β-Carotene [1]: 0.2 mg/L
OD610 [1]: 5
Total carotenoid [1]: 4.1 mg/L
Carotenoid: 3-Hydroxyechinenone [2]: 0.3 mg/L
Carotenoid: Adonirubin [2]: 0.4 mg/L
Carotenoid: Adonixanthin [2]: 7.0 mg/L
Carotenoid: Astaxanthin [2]: 3.6 mg/L
Carotenoid: Asteroidenone [2]: 0.3 mg/L
Carotenoid: Canthaxanthin [2]: 0.1 mg/L
Carotenoid: Echinenone [2]: 0.2 mg/L
Carotenoid: β-Carotene [2]: 1.0 mg/L
OD610 [2]: 9
Total carotenoid [2]: 12.9 mg/L
Carotenoid: 3-Hydroxyechinenone [3]: 0.4 mg/L
Carotenoid: Adonirubin [3]: 1.3 mg/L
Carotenoid: Adonixanthin [3]: 4.0 mg/L
Carotenoid: Astaxanthin [3]: 11.7 mg/L
Carotenoid: Asteroidenone [3]: 0.4 mg/L
Carotenoid: Canthaxanthin [3]: 0.9 mg/L
Carotenoid: Echinenone [3]: 0.4 mg/L
Carotenoid: β-Carotene [3]: 1.1 mg/L
OD610 [3]: 18
Total carotenoid [3]: 20.2 mg/L
Carotenoid: 3-Hydroxyechinenone [4]: 0.5 mg/L
Carotenoid: Adonirubin [4]: 8.3 mg/L
Carotenoid: Adonixanthin [4]: 3.1 mg/L
Carotenoid: Astaxanthin [4]: 26.5 mg/L
Carotenoid: Asteroidenone [4]: 0.4 mg/L
Carotenoid: Canthaxanthin [4]: 3.4 mg/L
Carotenoid: Echinenone [4]: 1.4 mg/L
Carotenoid: β-Carotene [4]: 1.0 mg/L
OD610 [4]: 34
Total carotenoid [4]: 44.5 mg/L
Carotenoid: 3-Hydroxyechinenone [5]: 0.5 mg/L
Carotenoid: Adonirubin [5]: 6.4 mg/L
Carotenoid: Adonixanthin [5]: 3.5 mg/L
Carotenoid: Astaxanthin [5]: 25.5 mg/L
Carotenoid: Asteroidenone [5]: 0.4 mg/L
Carotenoid: Canthaxanthin [5]: 2.6 mg/L
Carotenoid: Echinenone [5]: 1.2 mg/L
Carotenoid: β-Carotene [5]: 0.8 mg/L
OD610 [5]: 35
Total carotenoid [5]: 40.9 mg/L
Carotenoid: 3-Hydroxyechinenone [6]: 0.7 mg/L
Carotenoid: Adonirubin [6]: 5.8 mg/L
Carotenoid: Adonixanthin [6]: 3.2 mg/L
Carotenoid: Astaxanthin [6]: 28.6 mg/L
Carotenoid: Asteroidenone [6]: 0.5 mg/L
Carotenoid: Canthaxanthin [6]: 2.3 mg/L
Carotenoid: Echinenone [6]: 1.2 mg/L
Carotenoid: β-Carotene [6]: 0.8 mg/L
OD610 [6]: 37
Total carotenoid [6]: 42.9 mg/L
Carotenoid: 3-Hydroxyechinenone [7]: 0.4 mg/L
Carotenoid: Adonirubin [7]: 7.0 mg/L
Carotenoid: Adonixanthin [7]: 1.7 mg/L
Carotenoid: Astaxanthin [7]: 26.8 mg/L
Carotenoid: Asteroidenone [7]: 0.3 mg/L
Carotenoid: Canthaxanthin [7]: 3.1 mg/L
Carotenoid: Echinenone [7]: 1.2 mg/L
Carotenoid: β-Carotene [7]: 0.8 mg/L
OD610 [7]: 37
Total carotenoid [7]: 41.3 mg/L
Carotenoid: 3-Hydroxyechinenone [8]: 0.2 mg/L
Carotenoid: Adonirubin [8]: 14.3 mg/L
Carotenoid: Adonixanthin [8]: 0.7 mg/L
Carotenoid: Astaxanthin [8]: 14.2 mg/L
Carotenoid: Asteroidenone [8]: 0.1 mg/L
Carotenoid: Canthaxanthin [8]: 8.1 mg/L
Carotenoid: Echinenone [8]: 1.4 mg/L
Carotenoid: β-Carotene [8]: 0.7 mg/L
OD610 [8]: 33
Total carotenoid [8]: 39.7 mg/L
Carotenoid: 3-Hydroxyechinenone [9]: 0.1 mg/L
Carotenoid: Adonirubin [9]: 11.9 mg/L
Carotenoid: Adonixanthin [9]: 0.3 mg/L
Carotenoid: Astaxanthin [9]: 9.3 mg/L
Carotenoid: Asteroidenone [9]: 0.1 mg/L
Carotenoid: Canthaxanthin [9]: 9.9 mg/L
Carotenoid: Echinenone [9]: 2.0 mg/L
Carotenoid: β-Carotene [9]: 0.8 mg/L
OD610 [9]: 31
Total carotenoid [9]: 34.4 mg/L
Carotenoid: 3-Hydroxyechinenone [10]: 0.1 mg/L
Carotenoid: Adonirubin [10]: 6.5 mg/L
Carotenoid: Adonixanthin [10]: 0.2 mg/L
Carotenoid: Astaxanthin [10]: 1.9 mg/L
Carotenoid: Asteroidenone [10]: 0.1 mg/L
Carotenoid: Canthaxanthin [10]: 9.4 mg/L
Carotenoid: Echinenone [10]: 2.8 mg/L
Carotenoid: β-Carotene [10]: 1.2 mg/L
OD610 [10]: 23
Total carotenoid [10]: 22.2 mg/L
Carotenoid: 3-Hydroxyechinenone [11]: 0.0 mg/L
Carotenoid: Adonirubin [11]: 0.2 mg/L
Carotenoid: Adonixanthin [11]: 0.0 mg/L
Carotenoid: Astaxanthin [11]: 0.1 mg/L
Carotenoid: Asteroidenone [11]: 0.0 mg/L
Carotenoid: Canthaxanthin [11]: 0.1 mg/L
Carotenoid: Echinenone [11]: 0.0 mg/L
Carotenoid: β-Carotene [11]: 0.0 mg/L
OD610 [11]: 3
Total carotenoid [11]: 0.4 mg/L
